Values joined by “and” are separate entries in the source; they are usually repeats but may differ in a detail not shown here. Equal entries are not always repeated. Where two headings read alike, the source gives them in different places. Residues, ends and D or L forms follow the SMILES beside them.
Legend:
[1] = test system: T1, ACE (rat lung); assay: In vitro degradation in the presence of rat lung ACE; format: in vitro ADME; conditions: ground rat lung material (rat lung ACE), peptide 100 nM, ground rat lung material 0.1 mg/ml, pH 7.5, read-out: percentage of peptide assayed relative to the control; for remaining at 2 h, 100 nM: T120 min
T1 construct: incubated with ground rat lung material (at 0.1 mg/ml); from tissue; host or cells: rat lung (ground material)
Protocol: (§1) The peptides (100 nM) were incubated with ground rat lung material (at 0.1 mg/ml) or human converting enzyme (5 mU final concentration) in the presence or absence of captopril (10 μM final concentration) in 0.1 M Tris/HCl buffer+0.3 mM NaCl, pH=7.5. A control comprising only the peptides in the presence of 0.1 M Tris/HCl buffer+0.3 mM NaCl, pH=7.5, was carried out.
(§2) A methanol extraction was carried out in order to stop the reaction. At each time, the concentration of the nondegraded peptide was measured by enzyme immunoassay.
(§3) The results were expressed as percentage of peptide assayed relative to the control for each sample time.

[2] = biological target: T2, rat lung ACE (Rattus norvegicus, UniProt P47820); assay: as above; format: in vitro ADME; conditions: for percentage of peptide assayed relative to the control: peptide 100 nM, ground rat lung material 0.1 mg/ml, pH 7.5
T2 construct: incubated with ground rat lung material (at 0.1 mg/ml); from tissue; host or cells: rat lung (ground material)
T2 sequence (P47820 36-1313): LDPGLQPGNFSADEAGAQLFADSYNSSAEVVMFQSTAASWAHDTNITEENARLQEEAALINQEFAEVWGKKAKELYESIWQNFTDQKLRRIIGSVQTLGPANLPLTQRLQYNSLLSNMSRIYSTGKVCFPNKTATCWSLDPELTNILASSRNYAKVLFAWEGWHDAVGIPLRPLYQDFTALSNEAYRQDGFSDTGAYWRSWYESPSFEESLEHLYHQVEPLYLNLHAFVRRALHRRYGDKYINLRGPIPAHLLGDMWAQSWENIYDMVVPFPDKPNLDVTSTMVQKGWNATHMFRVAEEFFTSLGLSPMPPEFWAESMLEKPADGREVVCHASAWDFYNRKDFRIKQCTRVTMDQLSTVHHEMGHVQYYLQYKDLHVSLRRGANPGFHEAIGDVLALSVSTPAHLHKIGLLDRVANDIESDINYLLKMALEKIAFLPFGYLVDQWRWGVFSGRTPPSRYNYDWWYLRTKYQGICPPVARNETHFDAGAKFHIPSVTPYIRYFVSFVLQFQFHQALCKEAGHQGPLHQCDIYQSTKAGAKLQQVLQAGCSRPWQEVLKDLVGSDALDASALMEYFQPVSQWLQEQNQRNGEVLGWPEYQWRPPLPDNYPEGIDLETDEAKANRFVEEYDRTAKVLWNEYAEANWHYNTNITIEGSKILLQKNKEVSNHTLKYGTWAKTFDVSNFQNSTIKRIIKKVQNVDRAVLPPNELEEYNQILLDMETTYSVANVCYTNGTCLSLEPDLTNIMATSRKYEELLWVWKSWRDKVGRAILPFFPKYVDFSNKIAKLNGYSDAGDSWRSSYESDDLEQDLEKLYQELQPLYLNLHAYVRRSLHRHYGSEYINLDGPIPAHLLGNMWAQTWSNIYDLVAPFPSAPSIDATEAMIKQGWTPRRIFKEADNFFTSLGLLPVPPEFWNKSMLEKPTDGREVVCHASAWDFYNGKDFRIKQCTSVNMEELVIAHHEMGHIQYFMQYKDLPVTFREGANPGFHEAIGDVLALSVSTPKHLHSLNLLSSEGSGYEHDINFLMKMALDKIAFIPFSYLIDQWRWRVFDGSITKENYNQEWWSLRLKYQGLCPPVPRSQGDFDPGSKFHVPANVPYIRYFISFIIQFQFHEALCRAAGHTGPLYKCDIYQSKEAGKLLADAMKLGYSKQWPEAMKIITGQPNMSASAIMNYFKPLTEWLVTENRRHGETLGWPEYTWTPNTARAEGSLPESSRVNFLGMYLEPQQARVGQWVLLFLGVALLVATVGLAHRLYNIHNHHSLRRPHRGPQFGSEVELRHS
Protocol: as §1, §2, §3

[3] = biological target: human ACE (Homo sapiens, UniProt P12821); assay: In vitro degradation in the presence of human ACE; format: in vitro ADME
Chain of human ACE (P12821 30-1306): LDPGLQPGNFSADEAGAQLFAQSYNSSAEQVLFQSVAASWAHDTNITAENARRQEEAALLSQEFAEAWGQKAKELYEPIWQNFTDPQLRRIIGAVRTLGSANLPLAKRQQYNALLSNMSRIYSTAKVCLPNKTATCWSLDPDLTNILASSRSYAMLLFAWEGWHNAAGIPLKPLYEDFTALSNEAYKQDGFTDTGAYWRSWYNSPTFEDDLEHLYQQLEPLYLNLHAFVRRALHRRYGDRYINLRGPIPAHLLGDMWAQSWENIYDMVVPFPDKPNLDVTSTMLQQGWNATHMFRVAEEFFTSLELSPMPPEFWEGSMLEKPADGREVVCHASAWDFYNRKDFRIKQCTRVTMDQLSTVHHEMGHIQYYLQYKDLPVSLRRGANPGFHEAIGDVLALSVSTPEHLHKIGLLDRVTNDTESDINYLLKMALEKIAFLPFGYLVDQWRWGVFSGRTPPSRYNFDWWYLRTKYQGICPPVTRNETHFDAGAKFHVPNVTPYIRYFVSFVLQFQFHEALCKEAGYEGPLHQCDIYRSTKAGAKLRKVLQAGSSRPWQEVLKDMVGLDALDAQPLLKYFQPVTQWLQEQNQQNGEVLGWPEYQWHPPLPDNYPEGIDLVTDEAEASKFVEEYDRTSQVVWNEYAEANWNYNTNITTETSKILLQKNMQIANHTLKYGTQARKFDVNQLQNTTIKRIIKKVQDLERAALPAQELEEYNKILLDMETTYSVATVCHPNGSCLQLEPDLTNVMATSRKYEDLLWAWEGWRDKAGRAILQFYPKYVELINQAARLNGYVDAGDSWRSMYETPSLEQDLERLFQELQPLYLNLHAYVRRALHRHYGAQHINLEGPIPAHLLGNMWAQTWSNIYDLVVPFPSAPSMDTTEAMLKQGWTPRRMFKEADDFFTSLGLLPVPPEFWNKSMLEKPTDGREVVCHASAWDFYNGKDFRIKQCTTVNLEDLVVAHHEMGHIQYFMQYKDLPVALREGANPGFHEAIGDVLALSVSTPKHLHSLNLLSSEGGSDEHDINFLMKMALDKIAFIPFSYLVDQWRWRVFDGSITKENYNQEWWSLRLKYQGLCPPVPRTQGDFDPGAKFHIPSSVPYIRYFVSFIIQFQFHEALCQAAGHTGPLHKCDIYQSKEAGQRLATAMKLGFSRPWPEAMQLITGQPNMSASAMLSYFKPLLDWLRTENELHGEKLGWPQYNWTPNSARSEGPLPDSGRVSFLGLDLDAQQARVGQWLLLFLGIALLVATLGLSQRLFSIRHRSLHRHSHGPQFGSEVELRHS
Protocol: as §1, §2, §3

[4] = Plasma and urine pharmacokinetics after I.V. bolus in rats; conditions: for % excreted: urine; for Renal clearance: summarizing table, i.v. bolus
[5] = Group 3, i.v. bolus, without captopril, 24-48 h, single rats
[6] = Group 3, i.v. bolus, without captopril, mean
[7] = Group 3, i.v. bolus, without captopril, single rats
[8] = Group 4, i.v. bolus, with captopril, 4-24 h, single rats
[9] = Group 4, i.v. bolus, with captopril, 48-72 h, single rats
[10] = Group 4, i.v. bolus, with captopril, mean
[11] = Group 4, i.v. bolus, with captopril, single rats

CC(=O)N[C@@H](CO)C(=O)N[C@@H](CC(=O)O)C(=O)N[C@@H](CCCCN)C(=O)N1CCC[C@H]1C(N)=O [AcSDKP-NH2, N-acetyl-Ser-Asp-Lys-Pro-NH2] (Ac-SDKP-NH2)
remaining at 2 h, 100 nM ([1]; with captopril 10 μM, + captopril 10 μM): 109%
remaining at 0.5 h, 100 nM ([1]; T30 min, without captopril): 100%
remaining at 1 h, 100 nM ([1]; T60 min, without captopril): 65%
remaining at 2 h, 100 nM ([1]; without captopril): 95%
degradation by rat ACE ([2]; in vitro): does not appear to be degraded
concentrations found ([2]; in vitro, relative to control): 100±25%
percentage of peptide assayed relative to the control ([2]; T30 min, + captopril 10 μM): 125%
percentage of peptide assayed relative to the control ([2]; T60 min, + captopril 10 μM): 65%
percentage of peptide assayed relative to the control ([2]; T240 min, + captopril 10 μM): 136%
percentage of peptide assayed relative to the control ([2]; T240 min, without captopril): 126%
degradation by ACE of human origin ([3]; in vitro): does not appear to be degraded
concentrations found ([3]; in vitro, relative to control): 100±25%
percentage of peptide assayed relative to the control ([3]; peptide 100 nM, human converting enzyme 5 mU, pH 7.5, T30 min, + captopril 10 μM): 162%
Q in urine ([4]; Group 3, i.v. bolus, without captopril, 0-2 h, single rats): 175685.1 ng and 0.0 ng (5×)
Q in urine ([4]; Group 3, i.v. bolus, without captopril, 2-4 h, single rats): 0.0 ng (3×) and 180325.8 ng and 141210.2 ng and 290581.1 ng
Q in urine ([4]; Group 3, i.v. bolus, without captopril, 4-7 h, single rats): 84030.9 ng and 23548.7 ng and 0.0 ng (4×)
Q in urine ([4]; Group 3, i.v. bolus, without captopril, 7-24 h, single rats): 16014.8 ng and 8570.5 ng and 211497.2 ng and 41898.9 ng and 29223.7 ng and 159391.7 ng
Concentration in urine [4, 5]: ILQ
Q in urine [4, 5]: 513.0 ng and 1304.8 ng and 47218.0 ng and 603.6 ng and ILQ and 3161.4 ng
Concentration in plasma ([4]; Group 3, i.v. bolus, without captopril, 5 min, single rats): 2581 ng/mL and 3139 ng/mL and 2865 ng/mL and 2491 ng/mL and 3250 ng/mL and 2663 ng/mL
Concentration in plasma ([4]; Group 3, i.v. bolus, without captopril, 10 min, single rats): 1611 ng/mL and 2288 ng/mL and 2425 ng/mL and 2152 ng/mL and 2918 ng/mL and 2595 ng/mL
Concentration in plasma ([4]; Group 3, i.v. bolus, without captopril, 15 min, single rats): 1655 ng/mL and 985 ng/mL and 2204 ng/mL and 1796 ng/mL and 1930 ng/mL and 1750 ng/mL
Concentration in plasma ([4]; Group 3, i.v. bolus, without captopril, 30 min, single rats): 748 ng/mL and 880 ng/mL and 1317 ng/mL and 1329 ng/mL and 930 ng/mL and 867 ng/mL
Concentration in plasma ([4]; Group 3, i.v. bolus, without captopril, 60 min, single rats): 233 ng/mL and 443 ng/mL and 598 ng/mL and 545 ng/mL and 416 ng/mL and 463 ng/mL
Concentration in plasma ([4]; Group 3, i.v. bolus, without captopril, 120 min, single rats): 47 ng/mL and 45 ng/mL and 163 ng/mL and 118 ng/mL and 48 ng/mL and 69 ng/mL
Concentration in plasma ([4]; Group 3, i.v. bolus, without captopril, 240 min, single rats): ILQ (2×) and 3 ng/ml and 5 ng/ml and 2 ng/ml and 4 ng/ml
Concentration in plasma ([4]; Group 3, i.v. bolus, without captopril, 300 min, single rats): ILQ
CLR [4, 6]: 7.59 mL/min/kg
Ctotal dose/AUC [4, 6]: 8.08 mL/min/kg
AUC0-INF [4, 7]: 87407 ng·min/mL and 125025 ng·min/mL and 111894 ng·min/mL and 101003 ng·min/mL and 96190 ng·min/mL
CLR [4, 7]: 11.8 mL/min/kg and 7.7 mL/min/kg and 6.4 mL/min/kg and 4.9 mL/min/kg and 9.8 mL/min/kg and 5.0 mL/min/kg
Ctotal dose/AUC [4, 7]: 11.3 mL/min/kg and 9 mL/min/kg and 6.2 mL/min/kg and 6.5 mL/min/kg and 8.1 mL/min/kg and 7.2 mL/min/kg
Q in urine total [4, 7]: 276243.9 ng and 213749.7 ng and 258715.2 ng and 183712.7 ng and 319804.8 ng and 162553.1 ng
Vd [4, 7]: 0.27 L/kg and 0.22 L/kg and 0.253 L/kg and 0.256 L/kg and 0.261 L/kg
t½ [4, 7]: 20.7 min (2×) and 24.5 min and 26.8 min and 21.8 min and 25.1 min
% excreted [4, 6]: 92.67%
% excreted [4, 7]: 120.7%
Concentration in urine [4, 8]: 11032 ng/mL
Q in urine [4, 8]: 208504.2 ng and 144361.5 ng and 286064.8 ng and 274157.3 ng and 353834.5 ng
Q in urine ([4]; Group 4, i.v. bolus, with captopril, 24-48 h, single rats): 10737.7 ng and 2183.9 ng and 16360.4 ng and 10087.6 ng and 6728.5 ng
Concentration in urine [4, 9]: ILQ and 11 ng/ml
Q in urine [4, 9]: 758.4 ng and ILQ and 619.3 ng and 4008.3 ng and 0.0 ng
Concentration in plasma ([4]; Group 4, i.v. bolus, with captopril, 5 min, single rats): 3623 ng/mL and 3115 ng/mL and 4099 ng/mL and 2863 ng/mL and 3280 ng/mL
Concentration in plasma ([4]; Group 4, i.v. bolus, with captopril, 10 min, single rats): 1750 ng/mL and 3571 ng/mL and 3075 ng/mL and 2682 ng/mL and 2346 ng/mL
Concentration in plasma ([4]; Group 4, i.v. bolus, with captopril, 15 min, mean): 1874 ng/mL
Concentration in plasma ([4]; Group 4, i.v. bolus, with captopril, 15 min, single rats): 1432 ng/mL and 1978 ng/mL and 2363 ng/mL and 1635 ng/mL and 1960 ng/mL
Concentration in plasma ([4]; Group 4, i.v. bolus, with captopril, 30 min, mean): 1213 ng/mL
Concentration in plasma ([4]; Group 4, i.v. bolus, with captopril, 30 min, single rats): 1128 ng/mL and 891 ng/mL and 1173 ng/mL and 889 ng/mL and 1986 ng/mL
Concentration in plasma ([4]; Group 4, i.v. bolus, with captopril, 60 min, mean): 453 ng/mL
Concentration in plasma ([4]; Group 4, i.v. bolus, with captopril, 60 min, single rats): 312 ng/mL and 338 ng/mL and 346 ng/mL and 357 ng/mL and 910 ng/mL
Concentration in plasma ([4]; Group 4, i.v. bolus, with captopril, 120 min, mean): 74 ng/mL
Concentration in plasma ([4]; Group 4, i.v. bolus, with captopril, 120 min, single rats): 31 ng/mL and 63 ng/mL and 64 ng/mL and 73 ng/mL and 140 ng/mL
Concentration in plasma ([4]; Group 4, i.v. bolus, with captopril, 180 min, mean): 15 ng/mL
Concentration in plasma ([4]; Group 4, i.v. bolus, with captopril, 180 min, single rats): 7 ng/mL and 11 ng/mL and 18 ng/mL and 16 ng/mL and 23 ng/mL
Concentration in plasma ([4]; Group 4, i.v. bolus, with captopril, 240 min, single rats): 2 ng/ml (2×) and 3 ng/ml (3×)
Concentration in plasma ([4]; Group 4, i.v. bolus, with captopril, 300 min, mean): 0 ng/mL
Concentration in plasma ([4]; Group 4, i.v. bolus, with captopril, 300 min, single rats): ILQ (4×) and 0 ng/ml
AUC0-INF [4, 10]: 110097 ng·min/mL
CLR [4, 10]: 8.03 mL/min/kg
Ctotal dose/AUC [4, 10]: 8.06 mL/min/kg
Vd [4, 10]: 0.269 L/kg
AUC0-INF [4, 11]: 100543 ng·min/mL and 114983 ng·min/mL and 92278 ng·min/mL and 153339 ng·min/mL
CLR [4, 11]: 8.2 mL/min/kg and 4.7 mL/min/kg and 9.1 mL/min/kg and 10.6 mL/min/kg and 7.6 mL/min/kg
Ctotal dose/AUC [4, 11]: 9.0 mL/min/kg and 6.9 mL/min/kg and 7.8 mL/min/kg and 9.4 mL/min/kg and 7.2 mL/min/kg
Q in urine total [4, 11]: 220000 ng and 146545.0 ng and 303045 ng and 288253 ng and 360563 ng
Vd [4, 11]: 0.23 L/kg and 0.26 L/kg and 0.327 L/kg and 0.242 L/kg
t½ [4, 11]: 21.9 min and 23.0 min and 24.1 min
% excreted [4, 10]: 98.76%
GFR measured after administration, difference between the groups of rats ([4]; rats): does not differ significantly
degradation in vivo by ACE or other enzyme systems ([4]; rats): not degraded in vivo
excretion in the urine ([4]; rats): completely excreted in the urine without being reabsorbed or secreted
mean AUC of group without captopril less than group with captopril ([4]; rats, mean injected dose 11% higher with captopril): approximately 10%
Renal clearance ([4]; rats, with captopril): 8.0 mL/min/kg
Renal clearance ([4]; rats, without captopril): 7.6 mL/min/kg

Reference: patent publication US7601333B2, “Use of a tetrapeptide AcSDKP (SEQ ID No. 1) analog resistant to the angiotensin I converting enzyme for measuring glomerular filtration rate in a human or an animal and kit containing same” (Assistance Publique-Hopitaux de Paris, priority 2003, dated 2009)
